From patent publication US20110178396A1, “Nicotinamide Derivatives” (CRC FOR BIOMEDICAL IMAGING DEVELOPMENT LTD., priority 2008, published 2011)

Tested on: B16F0 melanoma tumour
Assay: Biodistribution in B16 melanoma bearing mice
Type: in vivo, C57BL/6J mice
Settings: for Organ distribution Intestine / Organ distribution Liver / Organ distribution Spleen / Organ distribution Stomach / Organ distribution Thyroid / Organ distribution Tumour: B16F0 tumour, mean ± S.D.
Protocol: Animal experiments were performed in compliance with the NHMRC Australian Code of Practice for the care and use of animals for scientific purposes. Female C57BL/6J black and BALB/c nude albino mice of 5 weeks age were obtained from the Animal Resources Centre, Western Australia. B16F0 murine melanoma cells were originally obtained from European Collection of Cell Cultures (UK) and A375 human amelanotic melanoma cells were originally obtained from American Type Culture Collection (USA). Before transplantation, B16F0 and A375 melanoma cells were maintained as a monolayer in RPMI culture medium supplemented with 10% foetal calf serum and antibiotics and passaged with trypsinisation. Early passages were frozen and stored in liquid nitrogen. Cells were passaged to P=10 and then discarded. Frozen aliquots were grown in a monolayer culture to between 80-95% confluence and for transplantation were trypsinised and washed with Ca^2+ and Mg^2+ free phosphate buffered saline (PBS). For inoculation, B16F0 melanoma cells were resuspended in Ca^2+ and Mg^2+ free PBS at 3 or 5×10^6 viable cells per ml and 0.1 ml was subcutaneously injected at the left flank of 6-7 weeks old C57BL/6J mice. Eleven days later, tumours could be palpated in >98% of inoculated animals. A375 human melanoma cells were resuspended at 1×10^7 viablecells per ml and 0.1 ml was injected subcutaneously at the left flank of 6 weeks old BALB/c nude mice and 25-26 days later tumours could be palpated with ˜60% of inoculated animals developing tumours.
Eleven days (B16F0 melanoma) and 25 days (A375 human melanoma) after tumour transplantation, the [^18F]nicotinamides (0.5-1.5 MBq, 100 μl) and [^123I]nicotinamide (0.37-0.74 MBq, 100 μl) derivatives were injected intravenously via the tail vein into mice (15-18 g). Time points of 1, 3, 6, 24, 48, 72 h after injection were chosen for determining the distribution of each compound in various organs and tissues for the iodine-123 labelled compounds and between 15 min and 6 hours (e.g. 15 min, 30 min, 1 h, 2 h, 4 h or 6 h) were chosen for the ^18F-labelled compounds. At defined times post injection, groups of mice (n=5) were weighed, sacrificed by CO2 administration followed by cervical dislocation and dissected. Selected organs were weighed and their radioactivity measured with a γ-counter. The remaining activity in the carcass was also determined in order to obtain the total activity in the mouse at defined time points. The fraction of injected activity (% ID) in the organ was calculated by comparison with suitable dilutions of the injected dose. Then, the radioactivity concentration in the organ (% ID/g) was found by dividing the % ID for each organ by the weight of the organ.

[1] = B16 tumour, C57BL/6J mice, 1 h, mean ± SD, n = 5
[2] = B16 tumour, C57BL/6J mice, 6 h, mean ± SD, n = 5
[3] = B16 tumour, C57BL/6J mice, 24 h, mean ± SD, n = 5
[4] = B16 melanoma bearing mice, 15 min

Structure (SMILES): CCCN(CCC)CCCCNC(=O)c1cncc(I)c1 [[^123I]17, N-(4-(Dipropylamino)butyl)-5-iodonicotinamide]
- Organ distribution Intestine (C57BL/6J mice, 1 h, n = 5): 15 ± 1 % ID/organ
- Organ distribution Liver (C57BL/6J mice, 1 h, n = 5): 2.0 ± 0.1 % ID/organ
- Organ distribution Spleen (C57BL/6J mice, 1 h, n = 5): 0.54 ± 0.09 % ID/organ
- Organ distribution Stomach (C57BL/6J mice, 1 h, n = 5): 6 ± 1 % ID/organ
- Organ distribution Thyroid (C57BL/6J mice, 1 h, n = 5): 1.3 ± 0.4 % ID/organ
- Organ distribution Tumour (C57BL/6J mice, 1 h, n = 5): 0.64 ± 0.20 % ID/organ
- Organ distribution Intestine (C57BL/6J mice, 6 h, n = 5): 9 ± 1 % ID/organ
- Organ distribution Liver (C57BL/6J mice, 6 h, n = 5): 0.95 ± 0.15 % ID/organ
- Organ distribution Spleen (C57BL/6J mice, 6 h, n = 5): 0.13 ± 0.02 % ID/organ
- Organ distribution Stomach (C57BL/6J mice, 6 h, n = 5): 6 ± 2 % ID/organ
- Organ distribution Thyroid (C57BL/6J mice, 6 h, n = 5): 4.0 ± 0.9 % ID/organ
- Organ distribution Tumour (C57BL/6J mice, 6 h, n = 5): 1.0 ± 0.2 % ID/organ
- Organ distribution Intestine (C57BL/6J mice, 24 h, n = 5): 0.40 ± 0.07 % ID/organ
- Organ distribution Liver (C57BL/6J mice, 24 h, n = 5): 0.14 ± 0.03 % ID/organ
- Organ distribution Spleen (C57BL/6J mice, 24 h, n = 5): 0.02 ± 0.03 % ID/organ
- Organ distribution Stomach (C57BL/6J mice, 24 h, n = 5): 0.17 ± 0.04 % ID/organ
- Organ distribution Thyroid (C57BL/6J mice, 24 h, n = 5): 6.0 ± 1.6 % ID/organ
- Organ distribution Tumour (C57BL/6J mice, 24 h, n = 5): 0.62 ± 0.22 % ID/organ
- tumour standardized uptake value (SUVt) (B16 tumour, C57BL/6J mice, 1 h): 1.8 ± 0.1
- Uptake Lung [1]: 7.5 ± 0.2 % ID/g
- uptake BLOOD [1]: 3.1 ± 0.1 % ID/g
- uptake BRAIN [1]: 0.42 ± 0.02 % ID/g
- uptake HEART [1]: 1.9 ± 0.1 % ID/g
- uptake KIDNEY [1]: 3.5 ± 0.2 % ID/g
- uptake LIVER [1]: 2.1 ± 0.2 % ID/g
- uptake TUMOUR [1]: 5.6 ± 0.3 % ID/g
- tumour standardized uptake value (SUVt) (B16 tumour, C57BL/6J mice, 6 h): 2.2 ± 0.4
- Uptake Lung [2]: 2.2 ± 0.2 % ID/g
- uptake BLOOD [2]: 2.4 ± 0.3 % ID/g
- uptake BRAIN [2]: 0.16 ± 0.03 % ID/g
- uptake HEART [2]: 0.8 ± 0.1 % ID/g
- uptake KIDNEY [2]: 1.7 ± 0.3 % ID/g
- uptake LIVER [2]: 1.1 ± 0.1 % ID/g
- uptake TUMOUR [2]: 5.0 ± 0.7 % ID/g
- tumour standardized uptake value (SUVt) (B16 tumour, C57BL/6J mice, 24 h): 5.1 ± 1.3
- Uptake Lung [3]: 0.15 ± 0.3 % ID/g
- uptake BLOOD [3]: 0.13 ± 0.03 % ID/g
- uptake BRAIN [3]: 0.02 % ID/g
- uptake HEART [3]: 0.09 ± 0.02 % ID/g
- uptake KIDNEY [3]: 0.12 ± 0.03 % ID/g
- uptake LIVER [3]: 0.15 ± 0.03 % ID/g
- uptake TUMOUR [3]: 2.3 ± 0.4 % ID/g

Structure (SMILES): CCN(CC)CCNC(=O)c1cccnc1F [[^18F]MEL6, 2-Fluoro-N-[2-(diethylamino)ethyl]nicotinantide]
- uptake BLOOD [4]: 2.8 % ID/g
- uptake BONE [4]: 4.8 % ID/g
- uptake BRAIN [4]: 6.2 % ID/g
- uptake EYES [4]: 36.7 % ID/g
- uptake GIT [4]: 7.8 % ID/g
- uptake HEART [4]: 3.7 % ID/g
- uptake KIDNEY [4]: 16.4 % ID/g
- uptake LIVER [4]: 12.2 % ID/g
- uptake LUNGS [4]: 5.0 % ID/g
- uptake MUSCLE [4]: 4.0 % ID/g
- uptake SKIN [4]: 2.7 % ID/g
- uptake SPLEEN [4]: 11.8 % ID/g
- uptake STOMACH [4]: 14.7 % ID/g
- uptake THYROID [4]: 4.5 % ID/g
- uptake TUMOUR [4]: 10.6 % ID/g
- uptake BLOOD (B16 melanoma bearing mice, 1 h): 0.9 % ID/g
- uptake BONE (B16 melanoma bearing mice, 1 h): 3.4 % ID/g
- uptake BRAIN (B16 melanoma bearing mice, 1 h): 1.6 % ID/g
- uptake EYES (B16 melanoma bearing mice, 1 h): 38.0 % ID/g
- uptake GIT (B16 melanoma bearing mice, 1 h): 7.1 % ID/g
- uptake HEART (B16 melanoma bearing mice, 1 h): 1.2 % ID/g
- uptake KIDNEY (B16 melanoma bearing mice, 1 h): 4.0 % ID/g
- uptake LIVER (B16 melanoma bearing mice, 1 h): 4.9 % ID/g
- uptake LUNGS (B16 melanoma bearing mice, 1 h): 1.5 % ID/g
- uptake MUSCLE (B16 melanoma bearing mice, 1 h): 1.2 % ID/g
- uptake SKIN (B16 melanoma bearing mice, 1 h): 1.0 % ID/g
- uptake SPLEEN (B16 melanoma bearing mice, 1 h): 9.2 % ID/g
- uptake STOMACH (B16 melanoma bearing mice, 1 h): 6.8 % ID/g
- uptake THYROID (B16 melanoma bearing mice, 1 h): 2.2 % ID/g
- uptake TUMOUR (B16 melanoma bearing mice, 1 h): 14.6 % ID/g
- uptake BLOOD (B16 melanoma bearing mice, 3 h): 0.2 % ID/g
- uptake BONE (B16 melanoma bearing mice, 3 h): 4.6 % ID/g
- uptake BRAIN (B16 melanoma bearing mice, 3 h): 0.4 % ID/g
- uptake EYES (B16 melanoma bearing mice, 3 h): 36.3 % ID/g
- uptake GIT (B16 melanoma bearing mice, 3 h): 7.1 % ID/g
- uptake HEART (B16 melanoma bearing mice, 3 h): 0.3 % ID/g
- uptake KIDNEY (B16 melanoma bearing mice, 3 h): 0.8 % ID/g
- uptake LIVER (B16 melanoma bearing mice, 3 h): 1.9 % ID/g
- uptake LUNGS (B16 melanoma bearing mice, 3 h): 0.3 % ID/g
- uptake MUSCLE (B16 melanoma bearing mice, 3 h): 0.3 % ID/g
- uptake SKIN (B16 melanoma bearing mice, 3 h): 0.2 % ID/g
- uptake SPLEEN (B16 melanoma bearing mice, 3 h): 2.5 % ID/g
- uptake STOMACH (B16 melanoma bearing mice, 3 h): 1.9 % ID/g
- uptake THYROID (B16 melanoma bearing mice, 3 h): 2.1 % ID/g
- uptake TUMOUR (B16 melanoma bearing mice, 3 h): 17.3 % ID/g
- uptake BLOOD (B16 melanoma bearing mice, 6 h): 0.1 % ID/g
- uptake BONE (B16 melanoma bearing mice, 6 h): 5.6 % ID/g
- uptake BRAIN (B16 melanoma bearing mice, 6 h): 0.1 % ID/g
- uptake EYES (B16 melanoma bearing mice, 6 h): 27.4 % ID/g
- uptake GIT (B16 melanoma bearing mice, 6 h): 3.6 % ID/g
- uptake HEART (B16 melanoma bearing mice, 6 h): 0.2 % ID/g
- uptake KIDNEY (B16 melanoma bearing mice, 6 h): 0.2 % ID/g
- uptake LIVER (B16 melanoma bearing mice, 6 h): 1.0 % ID/g
- uptake LUNGS (B16 melanoma bearing mice, 6 h): 0.2 % ID/g
- uptake MUSCLE (B16 melanoma bearing mice, 6 h): 0.2 % ID/g
- uptake SKIN (B16 melanoma bearing mice, 6 h): 0.9 % ID/g
- uptake SPLEEN (B16 melanoma bearing mice, 6 h): 0.5 % ID/g
- uptake STOMACH (B16 melanoma bearing mice, 6 h): 0.7 % ID/g
- uptake THYROID (B16 melanoma bearing mice, 6 h): 3.2 % ID/g
- uptake TUMOUR (B16 melanoma bearing mice, 6 h): 4.8 % ID/g
